In patent EP4806891A1 (Kangbaida (Sichuan) Biotechnology Co., Ltd., priority 2023, dated 2025) one finds IC50 data, which are given here for 13 compounds.

Some results are limits rather than exact numbers.

The experiment addresses T1, HEK-Blue-hTLR8 cells (Homo sapiens, UniProt Q9NR97).
T1 construct: expressed in transfected cells; host or cells: HEK-Blue-hTLR8 cells (HEK293-derived reporter line)
T1 sequence (Q9NR97 27-1041): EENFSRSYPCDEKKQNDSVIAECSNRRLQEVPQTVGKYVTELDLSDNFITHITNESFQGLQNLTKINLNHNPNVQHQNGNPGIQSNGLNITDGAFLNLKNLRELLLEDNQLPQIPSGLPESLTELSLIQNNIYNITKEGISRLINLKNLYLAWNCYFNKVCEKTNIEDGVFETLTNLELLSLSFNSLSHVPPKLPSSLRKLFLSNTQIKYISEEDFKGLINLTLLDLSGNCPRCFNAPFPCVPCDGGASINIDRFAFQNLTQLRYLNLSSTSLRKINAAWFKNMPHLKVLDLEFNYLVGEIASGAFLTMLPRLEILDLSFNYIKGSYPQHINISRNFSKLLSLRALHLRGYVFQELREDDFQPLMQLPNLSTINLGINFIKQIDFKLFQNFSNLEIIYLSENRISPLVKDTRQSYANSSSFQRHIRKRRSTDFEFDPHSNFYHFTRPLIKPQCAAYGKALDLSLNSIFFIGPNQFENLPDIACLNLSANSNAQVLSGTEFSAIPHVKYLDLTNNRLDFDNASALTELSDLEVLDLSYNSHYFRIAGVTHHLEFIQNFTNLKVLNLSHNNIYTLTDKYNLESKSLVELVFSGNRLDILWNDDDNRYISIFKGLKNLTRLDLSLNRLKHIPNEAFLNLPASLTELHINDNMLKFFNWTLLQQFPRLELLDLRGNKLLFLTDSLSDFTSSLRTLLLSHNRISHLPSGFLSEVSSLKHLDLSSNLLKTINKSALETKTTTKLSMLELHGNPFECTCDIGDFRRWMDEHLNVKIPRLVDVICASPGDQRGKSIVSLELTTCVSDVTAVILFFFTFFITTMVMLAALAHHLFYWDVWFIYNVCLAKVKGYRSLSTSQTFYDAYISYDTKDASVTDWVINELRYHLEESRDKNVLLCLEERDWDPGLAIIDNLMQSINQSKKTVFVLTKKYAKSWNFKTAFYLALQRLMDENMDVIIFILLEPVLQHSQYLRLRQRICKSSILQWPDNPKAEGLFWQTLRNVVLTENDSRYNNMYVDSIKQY
Put plainly: HEK-Blue-hTLR8 cell inhibition assay. Format: cell-based. As to conditions: R848 3 µM, 16 h, OD 620 nm, read-out: TLR8 IC50. An outline of the steps:
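Cells were pre-incubated 4 h, then co-treated 16 h at 37 °C with compound (10 doses, 0.5–10000 nM final) plus R848 (0.8 µM for TLR7, 3 µM for TLR8) or ODN2006 (1 µM, TLR9). Reporter OD620 gave inhibition relative to DMSO blank and agonist-only controls; IC50 came from curve fitting.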

The IC50 is the concentration that inhibits the measured activity by half. As to `CN1CCC(c2nnc([C@]34CN(c5ccc(C#N)n6ncc(Br)c56)C[C@@]3(C(F)(F)F)C4)o2)CC1` [Compound 83, 3-bromo-4-((1S,5R)-1-(5-(1-methylpiperidin-4-yl)-1,3,4-oxadiazol-2-yl)-5-(trifluoromethyl)-3-azabicyclo[3.1.0]hexan-3-yl)pyrazolo[1,5-a]pyridine-7-carbonitrile], the IC50 is over 1000 nM. In the case of `CN1CCC(c2nnc([C@]34CN(c5ccc(C#N)n6ncc(Cl)c56)C[C@@]3(C(F)(F)F)C4)o2)CC1` [Compound 84, 3-chloro-4-((1S,5R)-1-(5-(1-methylpiperidin-4-yl)-1,3,4-oxadiazol-2-yl)-5-(trifluoromethyl)-3-azabicyclo[3.1.0]hexan-3-yl)pyrazolo[1,5-a]pyridine-7-carbonitrile] it was under 1000 nM; in that of `CN1CCC(c2nnc([C@]34CN(c5c(Br)cc(C#N)n6ncc(Br)c56)C[C@@]3(C(F)(F)F)C4)o2)CC1` [Compound 85, 3,5-dibromo-4-((1S,5R)-1-(5-(1-methylpiperidin-4-yl)-1,3,4-oxadiazol-2-yl)-5-(trifluoromethyl)-3-azabicyclo[3.1.0]hexan-3-yl)pyrazolo[1,5-a]pyridine-7-carbonitrile], under 1000 nM; in that of `CN1CCC(c2nnc([C@]34CN(c5c(Br)cc(C#N)n6nccc56)C[C@@]3(C(F)(F)F)C4)o2)CC1` [Compound 86, 5-bromo-4-((1S,5R)-1-(5-(1-methylpiperidin-4-yl)-1,3,4-oxadiazol-2-yl)-5-(trifluoromethyl)-3-azabicyclo[3.1.0]hexan-3-yl)pyrazolo[1,5-a]pyridine-7-carbonitrile], under 100 nM. In the case of `CN1CCC(c2nnc([C@]34CN(c5ccc(C(F)(F)F)n6nccc56)C[C@@]3(C(F)(F)F)C4)o2)CC1` [Compound 87, 2-(1-methylpiperidin-4-yl)-5-((1S,5R)-5-(trifluoromethyl)-3-(7-(trifluoromethyl)pyrazolo[1,5-a]pyridin-4-yl)-3-azabicyclo[3.1.0]hexan-1-yl)-1,3,4-oxadiazole] it was under 1000 nM; in that of `CN1CCC(F)(c2nnc([C@]34CN(c5ccc(C#N)n6nccc56)C[C@@]3(C(F)(F)F)C4)o2)CC1` [Compound 90, 4-((1S,5R)-1-(5-(4-fluoro-1-methylpiperidin-4-yl)-1,3,4-oxadiazol-2-yl)-5-(trifluoromethyl)-3-azabicyclo[3.1.0]hexan-3-yl)pyrazolo[1,5-a]pyridine-7-carbonitrile], under 100 nM. For `CN1CCC(c2nnc([C@]34CN(c5ccc(C#N)c6ncnn56)C[C@@]3(C(F)(F)F)C4)o2)CC1` [Compound 91, 5-((1S,5R)-1-(5-(1-methylpiperidin-4-yl)-1,3,4-oxadiazol-2-yl)-5-(trifluoromethyl)-3-azabicyclo[3.1.0]hexan-3-yl)-[1,2,4]triazolo[1,5-a]pyridine-8-carbonitrile], the half-inhibitory concentration (IC50) was under 100 nM. As for `CN1CCC(Oc2nnc([C@]34CN(c5ccc(C(F)(F)F)c6ncccc56)C[C@@]3(C(F)(F)F)C4)o2)CC1` [Compound 92, 2-((1-methylpiperidin-4-yl)oxy)-5-((1S,5R)-5-(trifluoromethyl)-3-(8-(trifluoromethyl)quinolin-5-yl)-3-azabicyclo[3.1.0]hexan-1-yl)-1,3,4-oxadiazole], the IC50 was under 100 nM. In the case of `CN1CCC(Oc2nnc([C@]34CN(c5ccc(OC(F)(F)F)c6ncccc56)C[C@@]3(C(F)(F)F)C4)o2)CC1` [Compound 93, 2-((1-methylpiperidin-4-yl)oxy)-5-((1S,5R)-5-(trifluoromethyl)-3-(8-(trifluoromethoxy)quinolin-5-yl)-3-azabicyclo[3.1.0]hexan-1-yl)-1,3,4-oxadiazole] it was under 100 nM. In the case of `CN1CCC(O)(c2nnc([C@]34CN(c5ccc(C(F)(F)F)c6ncccc56)C[C@@]3(C(F)(F)F)C4)o2)CC1` [Compound 94, 1-methyl-4-(5-((1S,5R)-5-(trifluoromethyl)-3-(8-(trifluoromethyl)quinolin-5-yl)-3-azabicyclo[3.1.0]hexan-1-yl)-1,3,4-oxadiazol-2-yl)piperidin-4-ol] it was under 100 nM. Regarding `CN1CC(Cc2nnc([C@]34CN(c5ccc(C(F)(F)F)c6ncccc56)C[C@@]3(C(F)(F)F)C4)o2)C1` [Compound 95, 2-((1-methylazetidin-3-yl)methyl)-5-((1S,5R)-5-(trifluoromethyl)-3-(8-(trifluoromethyl)quinolin-5-yl)-3-azabicyclo[3.1.0]hexan-1-yl)-1,3,4-oxadiazole], the IC50 was under 100 nM. Then `FC(F)(F)Oc1ccc(N2C[C@]3(c4nnc(C5(F)CCNCC5)o4)C[C@]3(C(F)(F)F)C2)c2cccnc12` [Compound 96, 2-(4-fluoropiperidin-4-yl)-5-((1S,5R)-3-(8-(trifluoromethoxy)quinolin-5-yl)-5-(trifluoromethyl)-3-azabicyclo[3.1.0]hexan-1-yl)-1,3,4-oxadiazole], with under 100 nM; and `CN1CCC(Oc2nnc([C@]34CN(c5ccc(C#N)c6ncnn56)C[C@@]3(C(F)(F)F)C4)o2)CC1` [Compound 97, 5-((1S,5R)-1-(5-((1-methylpiperidin-4-yl)oxy)-1,3,4-oxadiazol-2-yl)-5-(trifluoromethyl)-3-azabicyclo[3.1.0]hexan-3-yl)-[1,2,4]triazolo[1,5-a]pyridine-8-carbonitrile], with under 100 nM.
